Molecular target: Programmed cell death protein 1/Programmed cell death 1 ligand 1 (Homo sapiens, UniProt Q9NZQ7)
Assay: Inhibition of europium-labeled PD-1/biotinylated PD-L1 interaction (unknown origin) preincubated for 15 mins with PD-L1 followed by PD-1 addition and measured after 90 mins by TR-FRET assay
Type: protein-complex assay
Settings: not given

Programmed cell death protein 1/Programmed cell death 1 ligand 1, sequence (Q15116 whole entry): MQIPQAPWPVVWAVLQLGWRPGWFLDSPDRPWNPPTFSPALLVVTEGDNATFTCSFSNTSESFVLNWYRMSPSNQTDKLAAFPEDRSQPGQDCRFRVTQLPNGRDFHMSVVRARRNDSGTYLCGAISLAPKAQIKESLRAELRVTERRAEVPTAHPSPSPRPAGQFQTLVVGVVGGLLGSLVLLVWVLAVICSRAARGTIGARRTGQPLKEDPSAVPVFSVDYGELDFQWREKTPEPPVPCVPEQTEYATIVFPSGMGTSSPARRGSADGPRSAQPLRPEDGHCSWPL
Programmed cell death protein 1/Programmed cell death 1 ligand 1, sequence (Q9NZQ7 whole entry): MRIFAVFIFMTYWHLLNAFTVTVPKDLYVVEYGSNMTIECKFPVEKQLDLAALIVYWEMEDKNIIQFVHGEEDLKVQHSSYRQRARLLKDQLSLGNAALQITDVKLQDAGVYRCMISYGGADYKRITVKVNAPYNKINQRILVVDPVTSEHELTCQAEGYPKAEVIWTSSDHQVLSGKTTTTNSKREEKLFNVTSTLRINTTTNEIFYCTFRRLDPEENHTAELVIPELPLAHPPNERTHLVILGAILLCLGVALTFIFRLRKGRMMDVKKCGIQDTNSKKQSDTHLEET

Going from `Cc1c(-c2ccccc2)cccc1N1C(=O)c2cc(Br)c(CN3CCCC[C@H]3C(=O)O)cc2C1=O` to `COc1cc2c(cc1CN1CCC[C@H]1C(=O)O)C(=O)N(c1cccc(-c3ccccc3)c1C)C2=O`, the IC50 falls from greater than 10 µM to 0.139 µM.

First: COc1cc2c(cc1CNCC(=O)O)C(=O)N(c1cccc(-c3ccccc3)c1C)C2=O
Second: COc1cc2c(cc1CNCCO)C(=O)N(c1cccc(-c3ccccc3)c1C)C2=O
The IC50 of the first is 2.3-fold higher: 0.0359 µM for the first, 0.0156 µM for the second. The second is the more potent here.

Compared with `CC(=O)NCCNCc1ccc2c(c1)C(=O)N(c1cccc(-c3ccccc3)c1C)C2=O`, `Cc1c(-c2ccccc2)cccc1N1C(=O)c2ccc(CNCCO)cc2C1=O` is 1.7-fold lower in IC50: 0.59 µM for the first, 0.342 µM for the second. The second is the more potent here.

Going from `Cc1c(-c2ccccc2)cccc1N1C(=O)c2ccc(C(=O)N3CCOCC3)cc2C1=O` to `N#Cc1c(-c2ccccc2)cccc1N1C(=O)c2ccc(C(=O)N3CCOCC3)cc2C1=O`, the IC50 rises from 1.95 µM to 6.69 µM (3.4-fold).

`Cc1c(-c2ccccc2)cccc1N1C(=O)c2ccc(CNCCNS(C)(=O)=O)cc2C1=O` and `Cc1c(-c2ccccc2)cccc1N1C(=O)c2ccc(CNCCN)cc2C1=O` are within 1.5-fold of each other in IC50: 0.968 µM for the first, 0.912 µM for the second.

Compared with `Cc1c(-c2ccccc2)cccc1N1C(=O)c2ccc(CN3CCC[C@H]3C(N)=O)cc2C1=O`, `Cc1c(-c2ccccc2)cccc1N1C(=O)c2ccc(CN3CCC[C@H]3C(=O)O)cc2C1=O` is 2-fold lower in IC50: 2.77 µM for the first, 1.42 µM for the second. The second is the more potent here.

Going from `Cc1c(-c2ccccc2)cccc1N1C(=O)c2ccc(CNCCNC(=O)OC(C)(C)C)cc2C1=O` to `CC(=O)NCCNCc1ccc2c(c1)C(=O)N(Cc1cccc(-c3ccccc3)c1C)C2=O`, the IC50 rises from 2.4 µM to 5.41 µM (2.3-fold).

First: Cc1c(-c2ccc3c(c2)OCCO3)cccc1N1C(=O)c2ccc(C(=O)NCCO)cc2C1=O
Second: N#Cc1c(-c2ccc3c(c2)OCCO3)cccc1N1C(=O)c2ccc(C(=O)NCCO)cc2C1=O
The IC50 of the first is 1.6-fold lower: 0.745 µM for the first, 1.17 µM for the second.

`Cc1c(-c2ccccc2)cccc1N1C(=O)c2ccc(OCc3ccc(C(C)C)cc3)cc2C1=O` and `Cc1c(-c2ccccc2)cccc1N1C(=O)c2ccc(OCc3ccccc3)cc2C1=O` cannot be ordered by IC50: greater than 10 µM for the first, greater than 10 µM for the second.

First: COc1cc2c(cc1CN[C@@H](C)C(=O)O)C(=O)N(c1cccc(-c3ccccc3)c1C)C2=O
Second: COc1cc2c(cc1CN[C@@H](CO)C(=O)OC(C)(C)C)C(=O)N(c1cccc(-c3ccccc3)c1C)C2=O
The IC50 of the first is 18-fold lower: 0.0169 µM for the first, 0.296 µM for the second. The first is the more potent here.

Going from `N#Cc1cccc(COc2ccc3c(c2)C(=O)N(c2cccc(-c4ccccc4)c2C#N)C3=O)c1` to `Cc1c(-c2ccccc2)cccc1N1C(=O)c2ccc(OCc3cccc(C#N)c3)cc2C1=O`, the IC50 rises from 0.395 µM to greater than 10 µM.

Going from `Cc1c(-c2ccccc2)cccc1N1C(=O)c2ccc(C(=O)NCCO)cc2C1=O` to `N#Cc1c(-c2ccccc2)cccc1N1C(=O)c2ccc(C(=O)NCCO)cc2C1=O`, the IC50 rises from 1.89 µM to 3.67 µM (1.9-fold).

First: CC(=O)COc1ccc2c(c1)C(=O)N(c1cccc(-c3ccccc3)c1C#N)C2=O
Second: CC(=O)COc1ccc2c(c1)C(=O)N(c1cccc(-c3ccccc3)c1C)C2=O
The IC50 of the first is 4.3-fold lower: 0.249 µM for the first, 1.06 µM for the second.

First: Cc1c(-c2ccccc2)cccc1N1C(=O)c2ccc(CN(C)CCO)cc2C1=O
Second: Cc1c(-c2ccccc2)cccc1N1C(=O)c2ccc(CN[C@@H](CO)C(=O)O)cc2C1=O
The IC50 of the first is 5.9-fold higher: 0.917 µM for the first, 0.156 µM for the second.

First: Cc1c(-c2ccccc2)cccc1N1C(=O)c2ccc(CNC3CCOCC3)cc2C1=O
Second: Cc1c(-c2ccccc2)cccc1N1C(=O)c2ccc(CN3CCOCC3)cc2C1=O
The IC50 of the first is 3.7-fold lower: 0.683 µM for the first, 2.52 µM for the second. The first is the more potent here.

Compared with `COc1cc2c(cc1CNCCNC(C)=O)C(=O)N(c1cccc(-c3ccccc3)c1C)C2=O`, `CCOC(=O)[C@H](CO)NCc1ccc2c(c1)C(=O)N(c1cccc(-c3ccccc3)c1C)C2=O` is 52-fold higher in IC50: 0.0462 µM for the first, 2.38 µM for the second.

Compared with `Cc1c(-c2ccccc2)cccc1N1C(=O)c2cc(Br)c(CN3CCOCC3)cc2C1=O`, `Cc1c(-c2ccccc2)cccc1N1C(=O)c2ccc(CN3CCC[C@H]3CO)cc2C1=O` is lower in IC50: greater than 10 µM for the first, 2.21 µM for the second. The second is the more potent here.

First: Cc1c(CN2C(=O)c3ccc(CN4CCCC[C@H]4C(=O)O)cc3C2=O)cccc1-c1ccccc1
Second: Cc1c(-c2ccccc2)cccc1N1C(=O)c2ccc(CN3CCCC[C@H]3C(=O)O)cc2C1=O
The IC50 of the first is 2.2-fold higher: 4.63 µM for the first, 2.11 µM for the second. The second is the more potent here.

`Cc1c(-c2ccccc2)cccc1N1C(=O)c2ccc(C(=O)N3CCN(C(C)C)CC3)cc2C1=O` and `Cc1c(CN2C(=O)c3ccc(CNCCO)cc3C2=O)cccc1-c1ccccc1` are within 1.5-fold of each other in IC50: 5.13 µM for the first, 3.84 µM for the second.

Compound `N#Cc1ccc(COc2ccc3c(c2)C(=O)N(c2cccc(-c4ccccc4)c2C#N)C3=O)cc1` has an IC50 greater than 10 µM.

System: not listed separately
Assay: Antitumor activity against humanized mouse LLC-hPD-L1 cells implanted in hPD-1 knockin C57BL/6 mouse assessed as tumor growth inhibition at 10 mg/kg, ip administered for 12 days starting from day 7 post tumor implantation and measured every 2 days relative to control
Type: functional
Settings: LLC-hPD-L1, 288 h, time 12 day, read-out: TGI

For `COc1nc(OCc2cccc(-c3ccccc3)c2C)ccc1CNCCNC(C)=O`, the inhibition in vivo at 10 mg/kg was 39.8%.

From ChEMBL document CHEMBL5316293, “Novel Small-Molecule PD-L1 Inhibitor Induces PD-L1 Internalization and Optimizes the Immune Microenvironment” (J Med Chem, 2023)
